Experimental data published in ChEMBL document CHEMBL1932915, “Synthesis and biological evaluation of sialic acid derivatives containing a long hydrophobic chain at the anomeric position and their C-5 linked polymers as potent influenza virus inhibitors” (Bioorg Med Chem, 2012).

What was measured:
[1] = molecular target: Neuraminidase (Influenza A virus, UniProt B4URF0); experiment: Inhibition of Avian influenza virus A/DK/HK/313/78 (H5N3) neuraminidase using 4-MU-Neu5Ac as substrate after 30 mins by fluorimetry
[2] = molecular target: Neuraminidase (Influenza A virus (A/Puerto Rico/8/1934(H1N1)), UniProt P03468); experiment: Inhibition of Human influenza virus A/PR/8/34 (H1N1) neuraminidase using 4-MU-Neu5Ac as substrate after 30 mins by fluorimetry
[3] = molecular target: Neuraminidase (Influenza A virus (A/Aichi/2/1968(H3N2)), UniProt Q75VQ4); experiment: Inhibition of Human influenza virus A/Aichi/2/68 (H3N2) neuraminidase using 4-MU-Neu5Ac as substrate after 30 mins by fluorimetry
[4] = Inhibition of Avian influenza virus A/DK/HK/313/78 (H5N3) hemagglutininin activity in chicken erythrocytes after 1 hr; type: cell-based

Chain of Neuraminidase (Influenza A virus (A/Puerto Rico/8/1934(H1N1)), UniProt P03468) (P03468 whole entry): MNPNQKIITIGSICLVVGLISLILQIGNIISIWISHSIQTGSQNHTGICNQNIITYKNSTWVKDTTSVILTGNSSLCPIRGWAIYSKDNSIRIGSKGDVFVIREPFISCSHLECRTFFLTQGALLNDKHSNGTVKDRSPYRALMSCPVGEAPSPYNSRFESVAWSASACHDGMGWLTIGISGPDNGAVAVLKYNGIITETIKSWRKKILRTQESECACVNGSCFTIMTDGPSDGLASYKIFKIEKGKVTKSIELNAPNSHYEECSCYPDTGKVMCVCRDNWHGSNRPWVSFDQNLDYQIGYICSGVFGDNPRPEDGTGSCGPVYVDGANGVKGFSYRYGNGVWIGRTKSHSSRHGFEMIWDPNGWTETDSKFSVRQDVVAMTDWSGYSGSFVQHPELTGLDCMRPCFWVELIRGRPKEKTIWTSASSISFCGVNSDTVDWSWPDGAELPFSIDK
Chain of Neuraminidase (Influenza A virus (A/Aichi/2/1968(H3N2)), UniProt Q75VQ4) (Q75VQ4 whole entry): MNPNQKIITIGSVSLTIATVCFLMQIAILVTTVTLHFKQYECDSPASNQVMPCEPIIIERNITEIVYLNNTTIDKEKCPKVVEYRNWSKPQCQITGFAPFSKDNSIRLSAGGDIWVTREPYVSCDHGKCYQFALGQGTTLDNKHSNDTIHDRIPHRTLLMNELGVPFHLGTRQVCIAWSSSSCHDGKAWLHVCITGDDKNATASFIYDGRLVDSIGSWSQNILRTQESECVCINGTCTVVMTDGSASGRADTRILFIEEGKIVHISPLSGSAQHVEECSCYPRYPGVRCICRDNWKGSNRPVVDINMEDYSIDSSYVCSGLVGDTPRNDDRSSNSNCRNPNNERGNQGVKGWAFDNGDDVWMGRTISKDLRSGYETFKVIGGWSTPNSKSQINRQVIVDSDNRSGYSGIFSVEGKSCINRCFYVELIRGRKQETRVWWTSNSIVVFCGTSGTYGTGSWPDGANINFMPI
Chain of Neuraminidase (B4URF0 whole entry): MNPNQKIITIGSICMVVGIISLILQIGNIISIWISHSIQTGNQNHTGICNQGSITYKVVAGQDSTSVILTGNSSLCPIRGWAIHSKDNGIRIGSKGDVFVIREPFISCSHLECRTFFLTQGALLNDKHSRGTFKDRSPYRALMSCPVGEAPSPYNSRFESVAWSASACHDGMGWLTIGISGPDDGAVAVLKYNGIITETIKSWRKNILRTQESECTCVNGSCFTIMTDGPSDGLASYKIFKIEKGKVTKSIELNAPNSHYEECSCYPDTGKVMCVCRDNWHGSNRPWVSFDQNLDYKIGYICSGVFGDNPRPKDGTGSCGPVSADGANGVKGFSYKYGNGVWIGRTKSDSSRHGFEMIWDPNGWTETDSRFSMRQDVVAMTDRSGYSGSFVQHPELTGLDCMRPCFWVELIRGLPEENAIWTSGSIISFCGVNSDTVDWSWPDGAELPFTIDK

For `C=CC(=O)N[C@H]1[C@H]([C@H](O)[C@H](O)CO)O[C@@](SCCCCCCCCCCCC)(C(=O)O)C[C@@H]1O`, which EC50 [1] is on record?
Its EC50 is 533 µM.

And the EC50 [2]?
Its EC50 is 1350 µM.

What about the EC50 [3] of the same molecule?
The EC50 was 428 µM.

For `C=CC(=O)N[C@H]1[C@H]([C@H](O)[C@H](O)CO)OC(O)(C(=O)O)C[C@@H]1O` (stereo not given in full), which IC50 [4] is on record?
The IC50 was over 250 µM.

And the EC50 [1]?
The EC50 was 609 µM.

What about the EC50 [2] of the same molecule?
The EC50 was 2480 µM.

And the EC50 [3]?
The EC50 was 1080 µM.

Which EC50 [1] does the source give for `C=CC(=O)NCCCCCC(=O)N[C@H]1[C@H]([C@H](O)[C@H](O)CO)O[C@@](SCCCCCCCCCCCC)(C(=O)O)C[C@@H]1O` here?
Its EC50 is 102 µM.

What about the EC50 [2] of the same molecule?
Its EC50 is 743 µM.

What about the EC50 [3] of the same molecule?
The EC50 was 840 µM.
